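96-well plates; 48 h exposure; 5 concentrations. Endpoints by linear interpolation between flanking doses. Not reached: highest tested concentration assigned. At the GI50, growth is halved.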 Active and inactive are the calls of the source. Cut-off read from the data, not from the text of the source: active = GI50 up to about 1.1 µM and inactive = higher.
How the values were obtained:
Assay in all cases: NCI anticancer screen, dose series, 48 h
[1] = tested on: DLD-1
[2] = tested on: DMS-273
[3] = tested on: HOP-18
[4] = tested on: KM-20L2
[5] = tested on: LXFL 529
[6] = tested on: M19-MEL
[7] = tested on: RXF 631
[8] = tested on: SNB-78
[9] = tested on: XF498

Measured: GI50

Cc1ccc(C)c(NC(=O)C(=O)C2C(=O)N(c3ccccc3)N=C2N)c1 (configuration not stated)
inactive: [1] > 100 µM | [2] > 100 µM | [3] > 100 µM | [4] > 100 µM | [5] > 100 µM | [6] > 100 µM | [7] > 100 µM | [8] > 100 µM | [9] > 100 µM

COc1cc2c(OC)cc1CSCc1sc(C)c(c1Br)CSC2
inactive: [1] > 100 µM | [2] > 100 µM | [3] > 100 µM | [4] > 100 µM | [5] > 100 µM | [6] > 100 µM | [7] > 100 µM | [8] > 100 µM | [9] > 100 µM

O=c1nc2occc2cn1C1CC(O)C(CO)O1 (configuration not stated)
inactive: [1] > 100 µM | [2] > 100 µM | [3] > 100 µM | [4] > 100 µM | [5] > 100 µM | [6] > 100 µM | [7] > 100 µM | [8] > 100 µM | [9] > 100 µM

From ChEMBL document CHEMBL1201862, “PubChem BioAssay data set” (2004)
